Source: patent US20230341404A1, “TARGETING STROMA-CANCER INTERACTIONS IN CANCER” (The Regents of the University of California, priority 2022, published 2023)

How the values were obtained:
[1] = tested on: KPC cells; experiment: macropinocytosis and mitochondria in KPC cells on ECM from Ilomastat-treated fibroblasts; format: cell-based, mouse; details: ECM from Ilomastat-treated wild-type fibroblasts, LG medium, 24 h
Experimental: FIGS. 12A-12M: Inhibition of Col I cleavage shuts down NRF2-driven macropinocytosis and mitochondrial biogenesis. FIG. 12A, MP and mitochondria in KPC cells plated on indicated ECM and incubated in LG for 24 h. Col IIB in indicated ECM preparations is shown on the right. FIG. 12B, IB of indicated proteins in above cells. FIG. 12C, MP and mitochondria in indicated KPC cells plated on R/R Col I^Δ ECM and incubated in LG for 24 h. FIG. 12D, LB of indicated proteins in 1305 cells plated on ECM produced by bacterial collagenase (CLG, 50 μg/ml) treated or untreated fibroblasts and incubated in LG medium −/+CLG for 24 h. FIG. 12E, Genes differentially expressed between KPC cells plated on indicated ECM. Light gray: replicates with low expression (z-score=−2); dark gray: replicates with high expression (z-score=+2). […] Quantitation on the right. […] Statistical significance determined by two-tailed t-test. ***P<0.001, ****P<0.0001. […]
Cells were cultured on coverslips coated with or without ECM and fixed in 4% paraformaldehyde for 10 min at room temperature or methanol for 10 min at —20° C. […] Images were captured and analysed using a TCS SPE Leica confocal microscope with Leica Application Suite AF 2.6.0.7266 software (Leica).
Macropinosomes or mitochondria were quantified by using the ‘Analyze Particles’ feature in Image J (NIH). […] Kaplan—Meier survival curves were analysed by log-rank test. […]

[2] = tested on: 1305 cells; experiment: cell viability with tigecycline; format: cell-based, human; details: parental cells on wild-type ECM versus R/R ECM or DDR1^KD cells on wild-type ECM, LG medium, 24 h
Experimental: (§1) FIGS. 14A-14J: Effect of macropinocytosis and mitochondria on Col I-controlled PDAC cell growth. FIG. 14A, Bromodeoxyuridine (BrdU) incorporation into KPC cells plated on ECM mixtures produced by R/R and WT fibroblasts (R:W). Scale bars, 10 μm. FIG. 14B, FIG. 14C, Paren. and IKKα^KD KPC (FIG. 14B) or KC (FIG. 14C) cells were plated −/+ WT or R/R ECM and incubated in LG −/+ indicated reagents. Viable cells were measured after 3 days and depicted relative to untreated plastic-plated Paren. cells. (FIG. 14C). IKKα KD efficiency is shown on the right (FIG. 14B). […] Total viable cells were measured as above and are presented relative to the untreated cells. FIG. 14H, Mitochondrial ATP production calculated from FIG. 6B. […] Quantification of the SR positive area is shown on the left. […] Statistical significance determined by two-tailed t-test. […]
(§2) Cells were plated in 96-well plates coated with or without ECM at a density of 3,000 cells (MIA, 1305) or 1,500 cells (KPC or KC) per well and incubated overnight before treatment. […] Cell viability was determined with a Cell Counting Kit-8 assay (Glpbio). Optical density was read at 450 nm and analysed using a microplate reader with SoftMax 6.5 software (FilterMax F5, Molecular Devices). […]

[3] = tested on: KPC cells; experiment: cell viability with tigecycline; format: cell-based, mouse; details: parental cells on wild-type ECM versus R/R ECM or DDR1^KD cells on wild-type ECM, LG medium
Experimental: as §1, §2

Row | Structure (SMILES) | behaviour of ECM from treated fibroblasts (macropinocytosis, mitochondria) [1] | sensitivity to tigecycline (viable cells) [2] | sensitivity to tigecycline (viable cells) [3]
1 | CNC(=O)[C@H](Cc1c[nH]c2ccccc12)NC(=O)[C@@H](CC(=O)NO)CC(C)C [Ilomastat] | behaved like R/R ECM | – | –
2 | CN(C)c1cc(NC(=O)CNC(C)(C)C)c(O)c2c1C[C@H]1C[C@H]3[C@H](N(C)C)C(O)=C(C(N)=O)C(=O)[C@@]3(O)C(O)=C1C2=O [tigecycline] | – | more sensitive | more sensitive
